Reference: article PMC9085577, “Discovery of a Potent and Orally Active Dual GPBAR1/CysLT1R Modulator for the Treatment of Metabolic Fatty Liver Disease” (Frontiers in Pharmacology, 2022)

Tested on: liver transcriptome
Assay: AmpliSeq liver transcriptome of HFD-F mice
Format: in vivo
Conditions: liver, HFD-F + compound 2 vs HFD-F
From the text: C57BL/6J male mice were fed a high fat diet (HFD) containing 59 KJ% fat plus 1% cholesterol, w/o sugar (ssniff ® EF R/M acc. D12330 mod. 22,7 ME/kg) and fructose (HFD-F) in drinking water (42 g/L), or normal chow diet for 61 days. Food intake was estimated as the difference of weight between the offered and the remnant amount of food at 3-days intervals. The food was provided as pressed pellets and the residual spillage was not considered. After 7 days, HFD-F mice were randomized to receive HFD-F alone or in combination with compound 2 (30 mg/kg/day) by gavage until the end of the experiment. Doses of each agent were chosen according to previously published data. Mice were housed under controlled temperature (22°C) and photoperiods (12:12-h light/dark cycle), allowed unrestricted access to standard mouse chow and tap water. The experimental protocol was approved by the Animal Care and Use Committee of the University of Perugia and by the Italian Minister of Health and Istituto Superiore di Sanità (Italy) and was in agreement with the European guidelines for use of experimental animals (permission n. 583/2017-PR). The general health of the animals was monitored daily by the Veterinarian in the animal facility. At the day of sacrifice, fed mice were deeply anesthetized with a mixture of tiletamine hypochloride and zolazepam hypochloride/xylazine at a dose of 50/5 mg/kg and sacrificed before 12 a.m.
High-quality RNA was extracted from mice livers, using the Direct-zol™ RNA MiniPrep w/Zymo-Spin™ IIC Columns (Zymo Research, Irvine, CA) according to the manufacturer’s instructions. RNA quality and quantity were assessed with the Qubit® RNA HS Assay Kit and a Qubit 3.0 fluorometer (Invitrogen, Carlsbad, CA) followed by agarose gel electrophoresis. Libraries were generated using the Ion AmpliSeq™ Transcriptome Mouse Gene Expression Core Panel and Chef-Ready Kit (Comprehensive evaluation of AmpliSeq transcriptome, a whole transcriptome RNA sequencing methodology) (Thermo Fisher Scientific, Waltham, MA). Briefly, 10 ng of RNA was reverse transcribed with SuperScript™ Vilo™ cDNA Synthesis Kit (Thermo Fisher Scientific, Waltham, MA) before library preparation on the Ion Chef™ instrument (Thermo Fisher Scientific, Waltham, MA). The resulting cDNA was amplified to prepare barcoded libraries using the Ion Code™ PCR Plate, and the Ion AmpliSeq™ Transcriptome Mouse Gene Expression Core Panel (Thermo Fisher Scientific, Waltham, MA), Chef-Ready Kit, according to the manufacturer’s instructions. Barcoded libraries were combined to a final concentration of 100 p.m., and used to prepare Template-Positive Ion Sphere™ (Thermo Fisher Scientific, Waltham, MA) Particles to load on Ion 540™ Chips, using the Ion 540™ Kit-Chef (Thermo Fisher Scientific, Waltham, MA). Sequencing was performed on an Ion S5™ Sequencer with Torrent Suite™ Software v6 (Thermo Fisher Scientific, Waltham, MA). The analyses were performed with a range of fold <−2 and >+2 and a p value <0.05, using Transcriptome Analysis Console Software (version 4.0.1), certified for AmpliSeq analysis (Thermo-Fisher). The transcriptomic data have been deposited as dataset on Mendeley data repository (reference number linking to the repository: Fiorucci, Stefano; Biagioli, Michele; Marchianò, Silvia; Di Giorgio, Cristina (2021), “Discovery of potent dual GPBAR1/CysLT1R modulator for the treatment of metabolic fatty liver disease,” Mendeley Data, V1, doi: 10.17632/6dnrk9fc72.1).

Structure (SMILES): O=C(O)c1cccc(-c2ccc(OCc3ccc4ccccc4n3)cc2)c1 [Compound 2, 4'-(quinolin-2-ylmethoxy)-[1,1′-biphenyl]-3-carboxylic acid]
- Gm31649 transcript Fold Change: 2.82
- Gm36796 transcript Fold Change: -2.15
- Gnat1 transcript Fold Change: -2.26
- Gngt1 transcript Fold Change: -2.64
- Gpnmb transcript Fold Change: -3.95
- Hnf4aos transcript Fold Change: 2.36
- Hnrnpa0 transcript Fold Change: -2.58
- Hspa5 transcript Fold Change: -2.37
- Igip transcript Fold Change: -2.32
- Il1b transcript Fold Change: -2.2
- Il1rn transcript Fold Change: -2.12
- Insig2 transcript Fold Change: -3.18
- Itgam transcript Fold Change: -5.37
- Kif20a transcript Fold Change: -2.25
- LOC108167447 transcript Fold Change: 2.42
- LOC108168323 transcript Fold Change: -2.25
- Lactb2 transcript Fold Change: -2.04
- Ly6d transcript Fold Change: -4.62
- Meg3 transcript Fold Change: 2.02
- Mettl9 transcript Fold Change: -2.22
- Mki67 transcript Fold Change: -2.36
- Mogat1 transcript Fold Change: -2.13
- Mthfd2 transcript Fold Change: -2.03
- Mvd transcript Fold Change: -2.06
- Nat8 transcript Fold Change: 2.38
- Neat1 transcript Fold Change: -2.87
- Npas2 transcript Fold Change: -3.98
- Nr4a1 transcript Fold Change: -2.25
- Nrep transcript Fold Change: 2.34
- Nuak2 transcript Fold Change: 2.15
- Pcbp1 transcript Fold Change: -4.32
- Pcp4l1 transcript Fold Change: 2.55
- Pdilt transcript Fold Change: 3.33
- Pdpn transcript Fold Change: -2.04
- Per3 transcript Fold Change: 4.98
- Plau transcript Fold Change: -4.02
- Plaur transcript Fold Change: -2.77
- Pld6 transcript Fold Change: 2.03
- Plekhg3 transcript Fold Change: 2.05
- Plxnc1 transcript Fold Change: -2.05
- Pnpla3 transcript Fold Change: -2.9
- Podn transcript Fold Change: 2.29
- Ppp1r3c transcript Fold Change: -2.05
- Prox1 transcript Fold Change: 2.06
- Psat1 transcript Fold Change: -2.69
- Ptgs2 transcript Fold Change: -4.87
- Raet1e transcript Fold Change: -2.18
- Raet1d transcript Fold Change: -2.32
- Ralbp1 transcript Fold Change: 3.61
- Rhob transcript Fold Change: -3.06
- Rrs1 transcript Fold Change: -2.27
- Saa4 transcript Fold Change: 5.34
- Sart3 transcript Fold Change: 2.37
- Sbk1 transcript Fold Change: 2.54
- Sec11c transcript Fold Change: -2.18
- Senp1 transcript Fold Change: 3.54
- Serpina7 transcript Fold Change: -2.84
- Serpine1 transcript Fold Change: -3.49
- Slc16a1 transcript Fold Change: -2.37
- Slc17a8 transcript Fold Change: -2.06
- Slc39a8 transcript Fold Change: -2.02
- Slc40a1 transcript Fold Change: -2.28
- Slc46a3 transcript Fold Change: 2.23
- Spon2 transcript Fold Change: -3.19
- Sqle transcript Fold Change: -2.72
- Stfa3 transcript Fold Change: -9.86
- Taok3 transcript Fold Change: 2.06
- Tk1 transcript Fold Change: 2.3
- Tmx1 transcript Fold Change: 2.28
- Tnf transcript Fold Change: -2.39
- Tnfrsf23 transcript Fold Change: -2.38
- Tnnc1 transcript Fold Change: 2.09
- Tsku transcript Fold Change: 2.15
- Ubqln2 transcript Fold Change: -2.65
- Uhrf1 transcript Fold Change: -2.03
- Upp2 transcript Fold Change: 2.5
- Usp2 transcript Fold Change: 3.94
- Wrn transcript Fold Change: 3.79
- Zfp101 transcript Fold Change: -2.1
- Zfp445 transcript Fold Change: 2.82
